The assay addresses T1, mGluR4 (Homo sapiens, UniProt Q14833).
T1 construct: expressed in transfected cells; host or cells: CHO cells (human mGluR4) or HEK cells (rat mGluR4 with GIRK)
Nature of the assay: mGluR4 potentiation assay (fluorometric plate reader, compound then EC20 agonist); species for the tabulated values not stated. The assay is classed as cell-based. Particulars: EC50 for potentiation of mGluR4. As for the experimental part:
The disclosed compounds and compositions can be evaluated for their ability to act as a potentiator of metabotropic glutamate receptor activity, in particular mGluR4 activity, by any suitable known methodology known in the art. For example, Chinese Hamster Ovary (CHO) cells transfected with human mGluR4 or HEK cells co-transfected with rat mGluR4 and the G-protein regulated Inwardly Rectifying Potassium channel (GIRK) were plated in clear bottom assay plates for assay in a Hamamatsu FDSS Fluorometric Plate Reader. The cells were loaded with either a Ca2+-sensitive fluorescent dye or the thallium responsive dye and the plates were washed and placed into a suitable kinetic plate reader. For human mGluR4 assays, a fluorescence baseline was established for 3-5 seconds, the disclosed compounds were then added to the cells, and the response in cells was measured. Approximately two and a half minutes later, a concentration of mGluR4 orthosteric agonist (e.g. glutamate or L-AP4) eliciting approximately 20% (EC20) of the maximal agonist response was added to the cells, and the response was measured. Two minutes later, a concentration of mGluR4 agonist (e.g. glutamate or L-AP4) eliciting 80% (EC80) of the maximal agonist response was added to the cells, and the response was measured. For rat mGluR4/GIRK experiments, a baseline was established for approximately five seconds, disclosed compounds were added, and either an EC20 or EC80 concentration of agonist was added approximately two and one half minutes later. Potentiation of the agonist response of mGluR4 by the disclosed compounds was observed as an increase in response to the EC20 concentration of agonist in the presence of compound compared to the response to agonist in the absence of compound. Similarly, antagonism of the agonist response of mGluR4 by the disclosed compounds was observed as a decrease in response to the EC80 concentration of agonist in the presence of compound compared to the response to agonist in the absence of compound.
The above described assay operated in two modes. In the first mode, a range of concentrations of the disclosed compounds are added to cells, followed by a single fixed concentration of agonist. If the compound acts as a potentiatior, an EC50 value for potentiation and a maximum extent of potentiation by the compound at this concentration of agonist is determined by non-linear curve fitting. If the compound acts as a noncompetitive antagonist, an IC50 value is determined by non-linear curve fitting. In the second mode, several fixed concentrations of the disclosed compounds are added to various wells on a plate, followed by a range in concentrations of agonist for each concentration of disclosed compound. The EC50 values for the agonist at each concentration of compound are determined by non-linear curve fitting. A decrease in the EC50 value of the agonist with increasing concentrations of the sample compound (a leftward shift of the agonist concentration-response curve) is an indication of the degree of mGluR4 potentiation at a given concentration of the sample compound. A decrease in the maximal response of the agonist with increasing concentrations of the sample compounds, with or without a rightward shift in agonist potency, is an indication of the degree of noncompetitive antagonism at mGluR4. The second mode also indicates whether the sample compounds also affect the maximum response to mGluR4 to agonists.

[1] abbreviates: unit inferred, exponent notation.

In patent US8916584B2 (Vanderbilt University, priority 2010, dated 2014) one finds EC50 data, which are given here for 22 compounds.

By EC50 is commonly meant the concentration giving half of the maximal effect.

T1 sequence (Q14833 33-912): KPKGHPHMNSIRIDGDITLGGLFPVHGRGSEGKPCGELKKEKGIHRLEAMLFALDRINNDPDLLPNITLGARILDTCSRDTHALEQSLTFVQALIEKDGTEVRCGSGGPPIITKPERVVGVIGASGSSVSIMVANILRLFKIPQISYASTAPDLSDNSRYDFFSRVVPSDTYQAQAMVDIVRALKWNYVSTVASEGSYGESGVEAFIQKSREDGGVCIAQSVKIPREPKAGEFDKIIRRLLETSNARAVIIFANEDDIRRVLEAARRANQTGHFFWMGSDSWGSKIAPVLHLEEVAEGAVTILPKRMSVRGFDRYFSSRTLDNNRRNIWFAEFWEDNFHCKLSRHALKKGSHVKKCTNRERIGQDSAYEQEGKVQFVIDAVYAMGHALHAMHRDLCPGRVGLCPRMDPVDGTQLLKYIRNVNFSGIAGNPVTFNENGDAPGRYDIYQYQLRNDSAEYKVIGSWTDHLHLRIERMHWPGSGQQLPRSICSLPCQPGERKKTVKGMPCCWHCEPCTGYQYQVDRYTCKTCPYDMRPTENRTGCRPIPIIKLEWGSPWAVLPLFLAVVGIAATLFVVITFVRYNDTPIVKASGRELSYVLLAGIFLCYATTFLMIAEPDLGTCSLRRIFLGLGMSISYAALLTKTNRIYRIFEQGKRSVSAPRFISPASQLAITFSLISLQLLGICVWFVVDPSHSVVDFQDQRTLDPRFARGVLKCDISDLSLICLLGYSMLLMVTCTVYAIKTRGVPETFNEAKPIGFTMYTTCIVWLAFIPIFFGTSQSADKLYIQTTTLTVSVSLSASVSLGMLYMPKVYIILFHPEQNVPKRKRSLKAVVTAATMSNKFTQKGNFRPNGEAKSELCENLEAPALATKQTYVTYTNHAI

Regarding `Clc1cccc(Nc2noc3cccnc23)c1` [Example 1, N-(3-chlorophenyl)isoxazolo[4,5-b]pyridin-3-amine], where the note is “EC20 concentration of agonist”, the EC50 is 0.209 µM.

`FC(F)Oc1cccc(Nc2noc3cccnc23)c1` [Example 2, N-(3-(difluoromethoxy)phenyl)isoxazolo[4,5-b]pyridin-3-amine]: under “EC20 concentration of agonist”, the 50% effective concentration (EC50) was determined as 0.364 µM.

Consider `Fc1ccc(Nc2noc3cccnc23)cc1Cl` [Example 3, N-(3-chloro-4-fluorophenyl)isoxazolo[4,5-b]pyridin-3-amine], for which, where the note is “EC20 concentration of agonist”, the EC50 was 0.893 µM.

On to `Clc1ccc(Nc2noc3cccnc23)cc1Cl` [Example 4, N-(3,4-dichlorophenyl)isoxazolo[4,5-b]pyridin-3-amine], for which, under “EC20 concentration of agonist”, the EC50 was 4.61 µM.

In the case of `COc1ccc(Nc2noc3cccnc23)cc1Cl` [Example 5, N-(3-chloro-4-methoxyphenyl)isoxazolo[4,5-b]pyridin-3-amine], the half-maximal effective concentration (EC50) (EC20 concentration of agonist) stood at 0.0788 µM.

With `FC(F)(F)c1cccc(Nc2noc3cccnc23)c1` [Example 6, N-(3-(trifluoromethyl)phenyl)isoxazolo[4,5-b]pyridin-3-amine], where the note is “EC20 concentration of agonist”, the 50% effective concentration (EC50) was determined as 0.434 µM.

Take `COc1cc(Nc2noc3cccnc23)ccc1Cl` [Example 7, N-(4-chloro-3-methoxyphenyl)isoxazolo[4,5-b]pyridin-3-amine]: the EC50 (EC20 concentration of agonist) is 2.1 µM.

With `COc1ccc(Nc2noc3cccnc23)cc1OC` [Example 8, N-(3,4-dimethoxyphenyl)isoxazolo[4,5-b]pyridin-3-amine], the EC50 (EC20 concentration of agonist) came out at 4.34 µM.

`Fc1cccc(Nc2noc3cccnc23)c1` [Example 9, N-(3-fluorophenyl)isoxazolo[4,5-b]pyridine-3-amine]: for the setting “EC20 concentration of agonist”, the EC50 came to 0.651 µM.

`O=S(=O)(Cc1ccccc1Cl)n1ccc(Nc2noc3cccnc23)c1` [Example 16, N-(1-((2-chlorobenzyl)sulfonyl)-1H-pyrrol-3-yl)isoxazolo[4,5-b]pyridin-3-amine]: the EC50 under setting [1] is 0.0892 µM.

Regarding `c1ccc(Nc2noc3cccnc23)cc1` [Example 17, N-phenylisoxazolo[4,5-b]pyridin-3-amine], the EC50 under setting [1] was 2.03 µM.

On to `FC(F)(F)Oc1cccc(Nc2noc3cccnc23)c1` [Example 18, N-(3-(trifluoromethoxy)phenyl)isoxazolo[4,5-b]pyridin-3-amine], for which the EC50 under setting [1] came to 1.17 µM.

With `c1cnc2c(Nc3ccc4c(c3)OCO4)noc2c1` [Example 19, N-(benzo[d][1,3]dioxol-5-yl)isoxazolo[4,5-b]pyridin-3-amine], the EC50 under setting [1] turned out to be 1 µM.

Take `Cc1cc(Nc2noc3cccnc23)ccc1Cl` [Example 20, N-(4-chloro-3-methylphenyl)isoxazolo[4,5-b]pyridin-3-amine]: the EC50 under setting [1] stood at 0.59 µM.

For the compound `CC(=O)c1cccc(Nc2noc3cccnc23)c1` [Example 22, l-(3-(isoxazolo[4,5-b]pyridin-3-ylamino)phenyl)ethanone], the EC50 under setting [1] was found to be 3.66 µM.

With `Fc1ccc(Nc2noc3cccnc23)cc1F` [Example 23, N-(3,4-difluorophenyl)isoxazolo[4,5-b]pyridin-3-amine], under setting [1], the EC50 was 0.338 µM.

`COc1cc(Nc2noc3cccnc23)ccc1F` [Example 24, N-(4-fluoro-3-methoxyphenyl)isoxazolo[4,5-b]pyridin-3-amine]: the EC50 under setting [1] is 0.468 µM.

On to `FC(F)C(F)(F)Oc1cccc(Nc2noc3cccnc23)c1` [Example 26], for which, under setting [1], the EC50 came out at 4.04 µM.

Turning to `Fc1ccc2onc(Nc3cccc(Cl)c3)c2n1` [Example 27, N-(3-chlorophenyl)-5-fluoroisoxazolo[4,5-b]pyridin-3-amine], under setting [1], the EC50 stood at 0.153 µM.

With `Clc1cccc(Nc2noc3ccccc23)c1` [Example 30, N-(3-chlorophenyl)benzo[d]isoxazol-3-amine], the EC50 under setting [1] worked out at 1.14 µM.

Regarding `Fc1cccc(Nc2noc3ccccc23)c1` [Example 31, N-(3-fluorophenyl)benzo[d]isoxazol-3-amine], the EC50 under setting [1] is 4.09 µM.

Consider `COc1ccc(Nc2noc3ccccc23)cc1Cl` [Example 33, N-(3-chloro-4-methoxyphenyl)benzo[d]isoxazol-3-amine], for which the EC50 under setting [1] worked out at 7.03 µM.
